According to patent US20200095236A1, “ANTIBACTERIAL COMPOUNDS” (FORGE THERAPEUTICS, INC., priority 2017, published 2020):
In brackets after ≈: the same amount, converted by molar mass. Where two headings read alike, the source gives them in different places.

Columns and labels:
E. coli LpxC = E. coli LpxC (Escherichia coli, UniProt P0A725); assay: LpxC Binding Assay (Rapid Fire MS assay); format: biochemical
K. pneumoniae = assay: Bacterial susceptibility testing, MIC by broth microdilution (CLSI); format: cell-based; settings: Klebsiella pneumoniae, read-out: K. pneumoniae MIC
Procedure: (§1) Minimal inhibitory concentrations (MIC) were determined by the broth microdilution method in accordance with the Clinical and Laboratory Standards Institute (CLSI) guidelines. In brief, organism suspensions were adjusted to a 0.5 McFarland standard to yield a final inoculum between 3×10^5 and 7×10^5 colony-forming units (CFU)/mL. Drug dilutions and inocula were made in sterile, cation adjusted Mueller-Hinton Broth (Beckton Dickinson). An inoculum volume of 100 μL was added to wells containing 100 μL of broth with 2-fold serial dilutions of drug. All inoculated microdilution trays were incubated in ambient air at 35° C. for 18-24 h. Following incubation, the lowest concentration of the drug that prevented visible growth (OD600 nm<0.05) was recorded as the MIC. Performance of the assay was monitored by the use of laboratory quality-control strains and levofloxacin, a compound with a defined MIC spectrum, in accordance with CLSI guidelines.

E. coli = assay: as above; format: cell-based; settings: Escherichia coli, read-out: E. coli MIC
Procedure: as §1

S. aureus = assay: as above; format: cell-based; settings: Staphylococcus aureus, read-out: S. aureus MIC
Procedure: as §1

[1] = test system: TLR-4 activity of A. baumannii culture supernatants; assay: TLR4 assay: TLR4 activity of A. baumannii culture supernatants in HEK-Blue-hTLR4 cells; format: cell-based; settings: Acinetobacter baumannii, HEK-Blue hTLR4, read-out: % TLR-4 activity
Procedure: The TLR4 assay measures activity of diluted filter-sterilized A. baumannii culture supernatants. The assay was performed as described in Lin et al, Mbio, 2012. Briefly, A. baumannii was passaged to mid log-phase in the presence of Forge LpxC inhibitors. Culture supernatants were harvested, filter-sterilized and diluted 1:1000. TLR4 activity of the supernatants was tested using HEK-Blue-hTLR4 cells (Invivogen) that carry NF-kB and AP-1 driven SEAP (secreted embryonic alkaline phosphatase) reporter gene.
Exemplary TLR4 assay data (% TLR-4 activity) for compounds in embodiments of the disclosure.

[2] = broth microdilution, 35° C., 18-24 h

Chain of E. coli LpxC (P0A725 whole entry): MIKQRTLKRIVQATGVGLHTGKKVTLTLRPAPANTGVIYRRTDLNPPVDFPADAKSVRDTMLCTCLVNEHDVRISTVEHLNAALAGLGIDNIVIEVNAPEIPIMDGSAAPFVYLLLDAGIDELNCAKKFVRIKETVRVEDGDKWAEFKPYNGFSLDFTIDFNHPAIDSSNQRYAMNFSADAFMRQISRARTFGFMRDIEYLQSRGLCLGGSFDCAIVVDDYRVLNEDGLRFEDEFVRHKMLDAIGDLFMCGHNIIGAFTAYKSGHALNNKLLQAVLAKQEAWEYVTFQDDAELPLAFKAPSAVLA

| Compound | IC50 (E. coli LpxC) | MIC (K. pneumoniae; [2]) | MIC (E. coli; [2]) | MIC (S. aureus; [2]) | further results |
| --- | --- | --- | --- | --- | --- |
| Cc1nnc(NCC(Cc2ccc(C#Cc3ccc(CN4CCOCC4)cc3)cc2)c2nc[nH]c(=O)c2O)o1 (centres unmarked) [Compound 87, 5-hydroxy-6-(1-((5-methyl-1,3,4-oxadiazol-2-yl)amino)-3-(4-((4-(morpholinomethyl)phenyl)ethynyl)phenyl)propan-2-yl)pyrimidin-4(3H)-one] | 50 to 100 nM |  |  |  |  |
| N#CC1CN(Cc2ccc(C#Cc3ccc(CC(CNCCF)c4nc[nH]c(=O)c4O)cc3)cc2)C1 (centres unmarked) [Compound 209, 1-(4-((4-(3-((2-fluoroethyl)amino)-2-(5-hydroxy-6-oxo-1,6-dihydropyrimidin-4-yl)propyl)phenyl)ethynyl)benzyl) azetidine-3-carbonitrile] | 10 to 50 nM |  |  |  |  |
| N-(2,2-difluoroethyl)- 2-(5-hydroxy-6-oxo- 1,6-dihydropyrimidin- 4-yl)-3-(4-((4- (hydroxymethyl) phenyl)ethynyl)phenyl) propanamide [Compound 108] | 10 to 50 nM |  |  |  |  |
| CO[C@H]1CCN(Cc2ccc(C#Cc3ccc(CC(C(=O)NCC(F)F)c4nc[nH]c(=O)c4O)cc3)cc2)C1 (stereo partly drawn) [Compound 105, N-(2,2-difluoroethyl)-2-(5-hydroxy-6-oxo-1,6-dihydropyrimidin-4-yl)-3-(4-((4-(((S)-3-methoxypyrrolidin-1-yl)methyl)phenyl)ethynyl)phenyl) propanamide] | 50 to 100 nM |  |  |  |  |
| C=CCNCC(Cc1ccc(C#Cc2ccc(CN3CCOCC3)cc2)cc1)c1nc[nH]c(=O)c1O (centres unmarked) [Compound 56, 6-(1-(allylamino)-3-(4-((4-(morpholinomethyl)phenyl)ethynyl)phenyl)propan-2-yl)-5-hydroxypyrimidin-4(3H)-one] | 10 to 50 nM |  |  |  |  |
| O=c1[nH]cnc(C(CNCCF)Cc2ccc(C#Cc3ccc(CNC4CCOC4)cc3)cc2)c1O (centres unmarked) [Compound 198, 6-(1-((2-fluoroethyl)amino)-3-(4-((4-(((tetrahydrofuran-3-yl)amino)methyl)phenyl)ethynyl)phenyl)propan-2-yl)-5-hydroxypyrimidin-4(3H)-one] | 100 to 1000 nM |  |  |  |  |
| N#CCC1CCN(Cc2ccc(C#Cc3ccc(CC(C(=O)NCC(F)F)c4nc[nH]c(=O)c4O)cc3)cc2)CC1 (centres unmarked) [Compound 152, 3-(4-((4-((4-(cyanomethyl)piperidin-1-yl)methyl)phenyl)ethynyl)phenyl)-N-(2,2-difluoroethyl)-2-(5-hydroxy-6-oxo-1,6-dihydropyrimidin-4-yl)propanamide] | 100 to 1000 nM |  |  |  |  |
| COC1CN(Cc2ccc(C#Cc3ccc(CC(C(=O)NCC(F)F)c4nc[nH]c(=O)c4O)cc3)cc2)C1 (centres unmarked) [Compound 109, N-(2,2-difluoroethyl)-2-(5-hydroxy-6-oxo-1,6-dihydropyrimidin-4-yl)-3-(4-((4-((3-methoxyazetidin-1-yl)methyl)phenyl)ethynyl)phenyl) propanamide] | 10 to 50 nM |  |  |  |  |
| O=C(NC1CC(F)(F)C1)C(Cc1ccc(C#Cc2ccc(CN3CCOCC3)cc2)cc1)c1nc[nH]c(=O)c1O (centres unmarked) [Compound 154, N-(3,3-difluorocyclobutyl)-2-(5-hydroxy-6-oxo-1,6-dihydropyrimidin-4-yl)-3-(4-((4-(morpholinomethyl)phenyl)ethynyl)phenyl) propanamide] | 50 to 100 nM |  |  |  |  |
| C[C@H]1CN(Cc2ccc(C#Cc3ccc(CC(CNCCF)c4nc[nH]c(=O)c4O)cc3)cc2)C[C@H](C)O1 (stereo partly drawn) [Compound 79, 6-(1-(4-((4-(((2S,6S)-2,6-dimethylmorpholino)methyl)phenyl)ethynyl)phenyl)-3-((2-fluoroethyl)amino)propan-2-yl)-5-hydroxypyrimidin-4(3H)-one] | 100 to 1000 nM |  |  |  |  |
| CC(=O)NC[C@@H](Cc1ccc(C#Cc2ccc(CN3CCOCC3)cc2)cc1)c1nc[nH]c(=O)c1O [Compound 14, (R)-N-(2-(5-hydroxy-6-oxo-1,6-dihydropyrimidin-4-yl)-3-(4-((4-(morpholinomethyl)phenyl)ethynyl)phenyl)propyl)acetamide] |  | 8 to 32 µg/mL (≈ 16.4 to 65.8 µM) | 1 to 8 µg/mL (≈ 2.06 to 16.4 µM) | > 32 µg/mL | activity at 4 µg/mL [1]: > 80%; activity at 8 µg/mL [1]: > 80%; activity at 16 µg/mL [1]: > 80% |
| O=c1[nH]cnc(C(CNCCF)Cc2ccc(C#Cc3ccc(CNC4COC4)cc3)cc2)c1O (centres unmarked) [Compound 207, 6-(1-((2-fluoroethyl)amino)-3-(4-((4-((oxetan-3-ylamino)methyl)phenyl)ethynyl)phenyl)propan-2-yl)-5-hydroxypyrimidin-4(3H)-one] | 50 to 100 nM |  |  |  |  |
| N#CC1CN(Cc2ccc(C#Cc3ccc(CC(C(=O)NCC(F)F)c4nc[nH]c(=O)c4O)cc3)cc2)C1 (centres unmarked) [Compound 149, 3-(4-((4-((3-cyanoazetidin-1-yl)methyl)phenyl)ethynyl)phenyl)-N-(2,2-difluoroethyl)-2-(5-hydroxy-6-oxo-1,6-dihydropyrimidin-4-yl)propanamide] | < 10 nM |  |  |  |  |
| COCCc1ccc(C#Cc2ccc(CC(C(=O)NCC(F)F)c3nc[nH]c(=O)c3O)cc2)cc1 (centres unmarked) [Compound 114, N-(2,2-difluoroethyl)-2-(5-hydroxy-6-oxo-1,6-dihydropyrimidin-4-yl)-3-(4-((4-(2-methoxyethyl)phenyl)ethynyl)phenyl) propanamide] | 50 to 100 nM |  |  |  |  |
| CS(=O)(=O)NCC(Cc1ccc(C#Cc2ccc(CN3CCOCC3)cc2)cc1)c1nc[nH]c(=O)c1O (centres unmarked) [Compound 80, N-(2-(5-hydroxy-6-oxo-1,6-dihydropyrimidin-4-yl)-3-(4-((4-(morpholinomethyl)phenyl)ethynyl)phenyl)propyl) methanesulfonamide] | 100 to 1000 nM |  |  |  |  |
| C=CCNC(=O)C(Cc1ccc(C#Cc2ccc(CN3CCOCC3)cc2)cc1)c1nc[nH]c(=O)c1O (centres unmarked) [Compound 6, N-allyl-2-(5-hydroxy-6-oxo-1,6-dihydropyrimidin-4-yl)-3-(4-((4-(morpholinomethyl)phenyl)ethynyl)phenyl)propanamide] |  | > 32 µg/mL | 8 to 32 µg/mL (≈ 16 to 64.2 µM) | > 32 µg/mL |  |
| O=C(Nc1nnn[nH]1)C(Cc1ccc(C#Cc2ccc(CN3CCOCC3)cc2)cc1)c1nc[nH]c(=O)c1O (centres unmarked) [Compound 11, 2-(5-hydroxy-6-oxo-1,6-dihydropyrimidin-4-yl)-3-(4-((4-(morpholinomethyl)phenyl)ethynyl)phenyl)-N-(1H-tetrazol-5-yl)propanamide] |  | > 32 µg/mL | > 32 µg/mL | > 32 µg/mL |  |
| CNC(=O)C(Cc1ccc(C#Cc2ccc(CN3CCOCC3)cc2)cc1)c1nc[nH]c(=O)c1O (centres unmarked) [Compound 5, 2-(5-hydroxy-6-oxo-1,6-dihydropyrimidin-4-yl)-N-methyl-3-(4-((4-(morpholinomethyl)phenyl)ethynyl)phenyl) propanamide] |  | > 32 µg/mL | 1 to 8 µg/mL (≈ 2.12 to 16.9 µM) | > 32 µg/mL |  |
| O=c1[nH]cnc(CCc2ccc(C#Cc3ccc(CN4CCOCC4)c(F)c3)cc2)c1O [Compound 186, 6-(4-((3-fluoro-4-(morpholinomethyl)phenyl)ethynyl)phenethyl)-5-hydroxypyrimidin-4(3H)-one] |  | < 1 µg/mL | < 1 µg/mL | > 32 µg/mL |  |
| O=C(Nc1ccn[nH]1)C(Cc1ccc(C#Cc2ccc(CN3CCOCC3)cc2)cc1)c1nc[nH]c(=O)c1O (centres unmarked) [Compound 8, 2-(5-hydroxy-6-oxo-1,6-dihydropyrimidin-4-yl)-3-(4-((4-(morpholinomethyl)phenyl)ethynyl)phenyl)-N-(1H-pyrazol-5-yl)propanamide] |  | > 32 µg/mL | > 32 µg/mL | > 32 µg/mL |  |
| O=C(Nc1cnc[nH]1)C(Cc1ccc(C#Cc2ccc(CN3CCOCC3)cc2)cc1)c1nc[nH]c(=O)c1O (centres unmarked) [Compound 9, 2-(5-hydroxy-6-oxo-1,6-dihydropyrimidin-4-yl)-N-(1H-imidazol-5-yl)-3-(4-((4-(morpholinomethyl)phenyl)ethynyl)phenyl) propanamide] |  | > 32 µg/mL | > 32 µg/mL | > 32 µg/mL |  |
| O=c1[nH]cnc(CCc2ccc(C#Cc3ccc(CN4CC(O)C4)cc3)c(F)c2)c1O [Compound 187, 6-(3-fluoro-4-((4-((3-hydroxyazetidin-1-yl)methyl)phenyl)ethynyl)phenethyl)-5-hydroxypyrimidin-4(3H)-one] |  | < 1 µg/mL | < 1 µg/mL | > 32 µg/mL | activity at 4 µg/mL [1]: 50 to 80%; activity at 8 µg/mL [1]: 50 to 80%; activity at 16 µg/mL [1]: 20 to 50% |
| N[C@@H]1CCN(Cc2ccc(C#Cc3ccc(CC(CNC(=O)CF)c4nc[nH]c(=O)c4O)cc3)cc2)C1 (stereo partly drawn) [Compound 45, N-(3-(4-((4-(((R)-3-aminopyrrolidin-1-yl)methyl)phenyl)ethynyl)phenyl)-2-(5-hydroxy-6-oxo-1,6-dihydropyrimidin-4-yl)propyl)-2-fluoroacetamide] |  |  |  |  | MIC (K. pneumoniae): > 32 µg/mL; MIC (E. coli): > 32 µg/mL; MIC (S. aureus): > 32 µg/mL |
| O=C(NCC(Cc1ccc(C#Cc2ccc(CN3CCOCC3)cc2)cc1)c1nc[nH]c(=O)c1O)C(F)(F)F (centres unmarked) [Compound 18, 2,2,2-trifluoro-N-(2-(5-hydroxy-6-oxo-1,6-dihydropyrimidin-4-yl)-3-(4-((4-(morpholinomethyl)phenyl)ethynyl)phenyl)propyl)acetamide] |  | 1 to 8 µg/mL (≈ 1.85 to 14.8 µM) | 1 to 8 µg/mL (≈ 1.85 to 14.8 µM) | > 32 µg/mL |  |
